Laboratory results from patent US20080096922A1, “Novel Sulfonamide derivative” (Dainippon Sumitomo Pharma Co., Ltd., priority 2004, published 2008).

Columns and labels:
LDL receptor protein = experiment: Measurement of an expression of a LDL receptor (immunoblotting, HepG2); assay type: cell-based, human; details: HepG2 cell, test compound at 0.1 and 1 μM, compared to a control group
Protocol: The activity of potentiating an expression of a LDL receptor by the test compounds were measured using a human hepatic cell line HepG2. Cells were seeded in a 6 well plate at the density of 7.5×10^5 cells/well (at first day). On third days, the medium was changed to a medium containing lipoprotein-deficient serum and the test compound. On forth days, the cells were scraped and collected by a centrifugation. The recovered cells were dissolved in a cell lysate buffer containing 0.1% TritonX-100 and after centrifugation, the supernatant was used as a solution of cell protein. The amount of the LDL-R protein was evaluated by an immunoblotting method using the above-prepared solution of cell protein.
After treating the HepG2 cell with the compound of Example 1-2, the amount of LDL receptor protein was detected by an immunoblotting method.

LDL receptor = experiment: Effects on an activity of a LDL receptor: uptake amount of DiI-LDL into HepG2 cell; assay type: cell-based, human; details: control group as 100%
Protocol: The 1,1′-dioctadecyl-3,3,3′,3′-tetramethylindocarbocyanine perchlorate (DiI)-labeled LDL (DiI-LDL) was prepared as follows. That is, a DiI (Invitrogen Corp., U.S.A) was mixed with a human LDL (Chemicon International, Inc., U.S.A) and the mixture was incubated at 37° C. for 8 hours. […] After centrifugation, the DiI-labeled LDL fraction was separated and dialyzed with a physiological saline to prepare the above desired solution.
The effects on a LDL receptor activity were determined as the uptake amount of DiI-LDL into HepG2 cell. The cultured human hepatic cell line HepG2 cell was purchased from the Dainippon Pharmaceuticals Co. Ltd. (Osaka, Japan). The HepG2 cells were seeded in a 96 well plate and were incubated in the Dulbecco's modified Eagle/F-12 (DMEM/F-12) medium containing 10% fetal bovine serum and antibiotics in a CO2 incubator at 37° C. for two to three days. After washing the cells, a DMEM/F-12 medium containing 5-10% lipoprotein-deficient serum, the test substrate and the antibiotics were added thereto and the cells were incubated at 37° C. for 19 hours. After adding DiI-LDL, the cells were incubated in a CO2 incubator at 37° C. for another 5 hours. The uptake amount of non-specific DiI-LDL was measured by adding 30 to 50 folds amount of the non-labeled LDL. After washing the cells with Dulbecco's phosphate buffer (Sigma Corp., U.S.A.), the Dulbecco's phosphate buffer was added to each well and then the uptake amount of DiI-LDL into the cell line were measured as the value of fluorescence. After measuring the fluorescence, the Dulbecco's phosphate buffer was removed and thereto was added 1N sodium hydroxide solution to dissolve the cells and the amount of protein was measured by using a part of the resulting solution. The effect on a LDL receptor activity by each compound was determined by calculating the ratio of the amount of fluorescence/the amount of protein, and by subtracting the non-specific uptake amount therefrom and then calculating the control group as 100%.

Row | SMILES | Activity of (%) LDL receptor (LDL receptor; 10 μM) [%] | other results
1 | COc1cccc(C2(C(=O)NS(=O)(=O)Oc3c(C(C)C)cccc3C(C)C)CCN(c3ccccc3OC)CC2)c1 [Example 1-2, 2,6-diisopropylphenyl {[1-(2-methoxyphenyl)-4-(3-methoxyphenyl)piperidin-4-yl]carbonyl}sulfamate] | 124 | amount of a LDL receptor protein (LDL receptor protein): superior increasing effect
2 | COc1cccc([C@]2(CNS(C)(=O)=O)CC[C@H](N3CCN(C)CC3)CC2)c1 [Example 13-1, N-{[trans-1-(3-methoxyphenyl)-4-(4-methylpiperazin-1-yl)cyclohexyl]methyl}methanesulfonamide] | 129 | –
3 | COc1cccc([C@]2(CNS(C)(=O)=O)CC[C@@H](NC3CCN(Cc4ccc(NC(C)=O)cc4)CC3)CC2)c1 [Example 15-1, N-[4-({4-[(cis-4-(3-methoxyphenyl)-4-{[(methylsulfonyl)-amino]methyl}cyclohexyl)amino]piperidin-1-yl}methyl)phenyl]acetamide] | 192 | –
4 | COc1cccc([C@]2(CCNS(N)(=O)=O)CC[C@@H](NCc3ccc(-c4ccccc4)cc3)CC2)c1.Cl [Example 22, N-{2-[trans-4-[(biphenyl-4-ylmethyl)amino]-1-(3-methoxyphenyl)cyclohexyl]ethyl}sulfamide hydrochloride] | – | Activity of (%) LDL receptor (LDL receptor; 3 μM): 156%
5 | COc1cccc(C2(C(=O)NP(=O)(Cc3ccccc3C)OC)CCN(c3ccccc3OC)CC2)c1 (stereo not shown) [Example 2-1, methyl N-{[1-(2-methoxyphenyl)-4-(3-methoxyphenyl)piperidin-4-yl]carbonyl}-P-(2-methylbenzyl)-phosphonamidate] | 140 | –
6 | COc1cccc(C2(C(=O)NS(N)(=O)=O)CCN(c3ncccn3)CC2)c1 [Example 28-1, N-(aminosulfonyl)-4-(3-methoxyphenyl)-1-pyrimidin-2-ylpiperidine-4-carboxamide] | 186 | –
7 | COc1cccc([C@]2(CNS(C)(=O)=O)CC[C@@H](NCc3ccc(S(C)(=O)=O)cc3)CC2)c1 [Example 12-2, N-[(cis-1-(3-methoxyphenyl)-4-{[4-(methylsulfonyl)benzyl]-amino}cyclohexyl)methyl]methanesulfonamide] | 142 | –
8 | COc1cccc([C@]2(CNS(C)(=O)=O)CC[C@@H](NCc3ccc(-c4ccccc4)cc3)CC2)c1 [Example 24, N-{[cis-4-[(biphenyl-4-ylmethyl)amino]-1-(3-methoxyphenyl)cyclohexyl]methyl}methanesulfonamide] | – | Activity of (%) LDL receptor (LDL receptor; 1 μM): 238%
9 | COc1cccc(C2(CNS(=O)(=O)c3ccc(C)cc3)CCN(C(c3ccccc3)c3ccccc3)CC2)c1 [Example 36, N-{[1-(diphenylmethyl)-4-(3-methoxyphenyl)piperidin-4-yl]methyl}-4-methylbenzenesulfonamide] | 122 | –
